Where two headings read alike, the source gives them in different places.
Legend:
CK1ε = CK1ε (Homo sapiens, UniProt P49674); test: CK1ε kinase assay (Caliper LabChip electrophoretic separation of fluoresceinated peptide substrate and product); format: biochemical; settings: 200 pM CK1ε, 50 μM ATP, 1.5 μM peptide, 22 hours at room temperature
Summary of the method: (§1)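 Each reaction was incubated 22 hours at room temperature and terminated with EDTA. Read-out was microfluidic electrophoretic separation of fluoresceinated substrate and phospho-product.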

CK1δ = CK1δ (Homo sapiens, UniProt P48730); test: CK1δ kinase assay (Caliper LabChip electrophoretic separation of fluoresceinated peptide substrate and product); format: biochemical; settings: 200 pM CK1δ, 50 μM ATP, 1.5 μM peptide, 22 hours at room temperature
Summary of the method: as §1

CK1ε, sequence (P49674 whole entry): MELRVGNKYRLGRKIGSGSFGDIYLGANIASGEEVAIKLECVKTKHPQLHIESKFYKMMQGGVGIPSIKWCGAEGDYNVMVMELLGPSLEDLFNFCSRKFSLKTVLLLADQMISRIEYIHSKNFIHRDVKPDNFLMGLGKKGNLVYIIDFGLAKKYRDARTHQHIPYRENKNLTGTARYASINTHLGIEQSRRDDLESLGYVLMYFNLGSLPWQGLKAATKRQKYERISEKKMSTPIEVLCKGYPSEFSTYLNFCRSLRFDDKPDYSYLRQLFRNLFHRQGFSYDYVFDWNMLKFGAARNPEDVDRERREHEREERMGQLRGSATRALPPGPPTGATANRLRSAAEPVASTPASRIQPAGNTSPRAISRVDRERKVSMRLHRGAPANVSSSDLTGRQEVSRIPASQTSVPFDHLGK
CK1δ, sequence (P48730 whole entry): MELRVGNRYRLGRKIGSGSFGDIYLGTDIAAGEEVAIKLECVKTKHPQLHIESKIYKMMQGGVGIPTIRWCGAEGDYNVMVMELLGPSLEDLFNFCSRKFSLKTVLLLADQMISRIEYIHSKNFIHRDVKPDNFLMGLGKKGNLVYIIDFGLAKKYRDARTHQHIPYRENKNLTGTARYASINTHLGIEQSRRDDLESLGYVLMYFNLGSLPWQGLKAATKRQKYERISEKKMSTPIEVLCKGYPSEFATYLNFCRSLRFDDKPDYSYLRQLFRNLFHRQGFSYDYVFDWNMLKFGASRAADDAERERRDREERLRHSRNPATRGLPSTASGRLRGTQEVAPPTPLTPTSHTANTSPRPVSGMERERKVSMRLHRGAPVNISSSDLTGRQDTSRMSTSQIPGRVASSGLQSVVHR

Question: Which results are given for `CC(C)(C)NC(=O)N1CCn2nc(-c3cc(Cl)cc(C#N)c3)c(C(N)=O)c2C1` [Compound 154, N^5-(tert-Butyl)-2-(3-chloro-5-cyanophenyl)-6,7-dihydropyrazolo[1,5-a] pyrazine-3,5(4H)-dicarboxamide]?
Answer: IC50 (CK1ε; read-out: CK1ε): 27.7 nM; IC50 (CK1ε; read-out: CK1ε IC50 range): 10 to 100 nM; IC50 (CK1δ; read-out: CK1δ): 24.3 nM; IC50 (CK1δ; read-out: CK1δ IC50 range): 10 to 100 nM

Question: Which IC50 (CK1ε; read-out: CK1ε IC50 range) does the source give for `N#CC12CCC(NC(=O)N3CCn4nc(-c5ccc(F)c(Cl)c5)c(C(N)=O)c4C3)(CC1)C2` [Compound A140, 2-(3-Chloro-4-fluorophenyl)-N^5-(4-cyanobicyclo[2.2.1]heptan-1-yl)-6,7-dihydropyrazolo[1,5-a]pyrazine-3,5(4H)-dicarboxamide] here?
Answer: 0.01 to 10 nM

Question: What about the IC50 (CK1δ; read-out: CK1δ IC50 range) of the same compound?
Answer: 0.01 to 10 nM

Question: With `N#Cc1ccc(NC(=O)N2CCn3nc(-c4cccc(Cl)c4)c(C(N)=O)c3C2)cc1` [Compound 166, 2-(3-Chlorophenyl)-N^5-(4-cyanophenyl)-6,7-dihydropyrazolo[1,5-a]pyrazine-3,5(4H)-dicarboxamide] as the compound, how does the IC50 (CK1ε; read-out: CK1ε) read?
Answer: 0.3 nM

Question: What about the IC50 (CK1ε; read-out: CK1ε IC50 range) of the same compound?
Answer: 0.01 to 10 nM

Question: What about the IC50 (CK1δ; read-out: CK1δ) of the same compound?
Answer: 0.3 nM

Question: And the IC50 (CK1δ; read-out: CK1δ IC50 range)?
Answer: 0.01 to 10 nM

Question: What does the source list for `CC(C)(C)NC(=O)N1Cc2c(C(N)=O)c(-c3ccc(F)c(Cl)c3)nn2C(COC(F)F)C1` (centres unmarked) [Compound A21, N^5-(tert-Butyl)-2-(3-chloro-4-fluorophenyl)-7-((difluoromethoxy)methyl)-6,7-dihydropyrazolo[1,5-a]pyrazine-3,5(4H)-dicarboxamide]?
Answer: IC50 (CK1ε; read-out: CK1ε IC50 range): 0.01 to 10 nM; IC50 (CK1δ; read-out: CK1δ IC50 range): 10 to 100 nM

Question: With `NC(=O)c1c(-c2ccc(Cl)c(Cl)c2)nn2c1CN(C(=O)NCC1CCC(F)(F)CC1)CC2` [Compound 206, 2-(3,4-Dichlorophenyl)-N^5-((4,4-difluorocyclohexyl)methyl)-6,7-dihydropyrazolo[1,5-a] pyrazine-3,5(4H)-dicarboxamide] as the compound, how does the IC50 (CK1ε; read-out: CK1ε IC50 range) read?
Answer: 0.01 to 10 nM

Question: And the IC50 (CK1δ; read-out: CK1δ IC50 range)?
Answer: 0.01 to 10 nM

Question: With `CC12CC3(C)CC(C)(C1)CC(NC(=O)N1CCn4nc(-c5ccc(Cl)c(Cl)c5)c(C(N)=O)c4C1)(C2)C3` [Compound A91, 2-(3,4-Dichlorophenyl)-N^5-((3s,5s,7s)-3,5,7-trimethyladamantan-1-yl)-6,7-dihydropyrazolo[1,5-a]pyrazine-3,5(4H)-dicarboxamide] as the compound, how does the IC50 (CK1ε; read-out: CK1ε IC50 range) read?
Answer: 0.01 to 10 nM

Question: What about the IC50 (CK1δ; read-out: CK1δ IC50 range) of the same compound?
Answer: 0.01 to 10 nM

Question: Which IC50 (CK1ε; read-out: CK1ε IC50 range) does the source give for `NC(=O)c1c(-c2ccc(F)c(Cl)c2)nn2c1CN(C(=O)NC1CC(F)(F)C1)CC2C(F)(F)F` (single isomer, unassigned) [Compound A125, 2-(3-Chloro-4-fluorophenyl)-N^5-(3,3-difluorocyclobutyl)-7-(trifluoromethyl)-6,7-dihydropyrazolo[1,5-a]pyrazine-3,5(4H)-dicarboxamide] here?
Answer: 10 to 100 nM

Question: What about the IC50 (CK1δ; read-out: CK1δ IC50 range) of the same compound?
Answer: 10 to 100 nM

Question: Which results are given for `NC(=O)c1c(-c2cccc(Cl)c2)nn2c1CN(C(=O)NC1CC(F)(F)C1)CC2CF` (single isomer, unassigned) [Compound A113, 2-(3-Chlorophenyl)-N^5-(3,3-difluorocyclobutyl)-7-(fluoromethyl)-6,7-dihydropyrazolo[1,5-a]pyrazine-3,5(4H)-dicarboxamide]?
Answer: IC50 (CK1ε; read-out: CK1ε IC50 range): 0.01 to 10 nM; IC50 (CK1δ; read-out: CK1δ IC50 range): 0.01 to 10 nM

Question: How did the IC50 (CK1ε; read-out: CK1ε IC50 range) turn out when `N#CC1(NC(=O)N2CCn3nc(-c4ccc(Cl)c(Cl)c4)c(C(N)=O)c3C2)CCOC1` (centres unmarked) [compound 335] was run?
Answer: 0.01 to 10 nM

Question: What about the IC50 (CK1δ; read-out: CK1δ IC50 range) of the same compound?
Answer: 0.01 to 10 nM

Question: What does the source list for `NC(=O)c1c(-c2cccc(F)c2)nn2c1CN(C(=O)Nc1cccc(F)c1F)CC2` [Compound 28, N^5-(2,3-Difluorophenyl)-2-(3-fluorophenyl)-6,7-dihydropyrazolo[1,5-a]pyrazine-3,5(4H)-dicarboxamide]?
Answer: IC50 (CK1ε; read-out: CK1ε IC50 range): 10 to 100 nM; IC50 (CK1δ; read-out: CK1δ IC50 range): 10 to 100 nM

Question: Which results are given for `NC(=O)c1c(-c2cccc(F)c2)nn2c1CN(C(=O)NC1CCN(CCC(F)(F)F)CC1)CC2` [Compound 103, 2-(3-Fluorophenyl)-N^5-(1-(3,3,3-trifluoropropyl)piperidin-4-yl)-6,7-dihydropyrazolo[1,5-a]pyrazine-3,5(4H)-dicarboxamide]?
Answer: IC50 (CK1ε; read-out: CK1ε): 541 nM; IC50 (CK1ε; read-out: CK1ε IC50 range): 100 to 2000 nM; IC50 (CK1δ; read-out: CK1δ): 70.6 nM

Question: Which results are given for `CN(C)C(=O)C(C)(C)NC(=O)N1CCn2nc(-c3ccc(F)c(Cl)c3)c(C(N)=O)c2C1` [Compound 218, 2-(3-Chloro-4-fluorophenyl)-N^5-(1-(dimethylamino)-2-methyl-1-oxopropan-2-yl)-6,7-dihydropyrazolo[1,5-a] pyrazine-3,5(4H)-dicarboxamide]?
Answer: IC50 (CK1ε; read-out: CK1ε IC50 range): 10 to 100 nM; IC50 (CK1δ; read-out: CK1δ IC50 range): 0.01 to 10 nM

Question: Which IC50 (CK1ε; read-out: CK1ε) does the source give for `CC1(NC(=O)N2Cc3c(C(N)=O)c(-c4ccc(F)c(Cl)c4)nn3CC2C2CC2)CC(F)(F)C1` (single isomer, unassigned) [Compound 349, 2-(3-Chloro-4-fluorophenyl)-6-cyclopropyl-N^5-(3,3-difluoro-1-methylcyclobutyl)-6,7-dihydropyrazolo[1,5-a]pyrazine-3,5(4H)-dicarboxamide] here?
Answer: 20.1 nM

Question: And the IC50 (CK1ε; read-out: CK1ε IC50 range)?
Answer: 10 to 100 nM

Question: And the IC50 (CK1δ; read-out: CK1δ)?
Answer: 34.2 nM

Question: What about the IC50 (CK1δ; read-out: CK1δ IC50 range) of the same compound?
Answer: 10 to 100 nM

Question: For `CC1(C)CC(NC(=O)N2CCn3nc(-c4ccc(Cl)c(Cl)c4)c(C(N)=O)c3C2)C1` [Compound 287, 2-(3,4-Dichlorophenyl)-N^5-(3,3-dimethylcyclobutyl)-6,7-dihydropyrazolo[1,5-a] pyrazine-3,5(4H)-dicarboxamide], which IC50 (CK1ε; read-out: CK1ε IC50 range) is on record?
Answer: 0.01 to 10 nM

Question: And the IC50 (CK1δ; read-out: CK1δ IC50 range)?
Answer: 0.01 to 10 nM

Question: Which IC50 (CK1ε; read-out: CK1ε IC50 range) does the source give for `NC(=O)c1c(-c2cccc(F)c2)nn2c1CN(C(=O)NCCc1ccc(F)cc1)CC2` [Compound 42, N^5-(4-Fluorophenethyl)-2-(3-fluorophenyl)-6,7-dihydropyrazolo[1,5-a]pyrazine-3,5(4H)-dicarboxamide] here?
Answer: 100 to 2000 nM

Question: What about the IC50 (CK1δ; read-out: CK1δ IC50 range) of the same compound?
Answer: 10 to 100 nM

Question: Which IC50 (CK1ε; read-out: CK1ε IC50 range) does the source give for `N#Cc1ccc([C@H]2C[C@@H](NC(=O)N3CCn4nc(-c5ccc(Cl)c(Cl)c5)c(C(N)=O)c4C3)C2)cc1` [Compound 283, N^5-((1s,3s)-3-(4-Cyanophenyl)cyclobutyl)-2-(3,4-dichlorophenyl)-6,7-dihydropyrazolo[1,5-a]pyrazine-3,5(4H)-dicarboxamide] here?
Answer: 0.01 to 10 nM

Question: And the IC50 (CK1δ; read-out: CK1δ IC50 range)?
Answer: 0.01 to 10 nM

Question: Which IC50 (CK1ε; read-out: CK1ε IC50 range) does the source give for `NC(=O)c1c(-c2ccc(F)c(Cl)c2)nn2c1CN(C(=O)N[C@H]1C[C@@H](c3ccc(F)cc3)C1)CC2` [Compound 276, 2-(3-Chloro-4-fluorophenyl)-N^5-((1s,3s)-3-(4-fluorophenyl)cyclobutyl)-6,7-dihydropyrazolo[1,5-a]pyrazine-3,5(4H)-dicarboxamide] here?
Answer: 0.01 to 10 nM

Question: And the IC50 (CK1δ; read-out: CK1δ IC50 range)?
Answer: 0.01 to 10 nM

Question: How did the IC50 (CK1ε; read-out: CK1ε IC50 range) turn out when `CC(C)(O)[C@H]1CN(C(=O)NC2CC(F)(F)C2)Cc2c(C(N)=O)c(-c3ccc(F)c(Cl)c3)nn21` [Compound A20, (R)-2-(3-Chloro-4-fluorophenyl)-N^5-(3,3 difluorocyclobutyl)-7-(2-hydroxypropan-2-yl)-6,7-dihydropyrazolo[1,5-a] pyrazine-3,5(4H)-dicarboxamide] was run?
Answer: 0.01 to 10 nM

Question: What about the IC50 (CK1δ; read-out: CK1δ IC50 range) of the same compound?
Answer: 0.01 to 10 nM

Question: With `CC1(C)C2CCC1(NC(=O)N1CCn3nc(-c4ccc(F)c(Cl)c4)c(C(N)=O)c3C1)CC2F` (centres unmarked) [Compound A67, 2-(3-Chloro-4-fluorophenyl)-N^5-(3-fluoro-7,7-dimethylbicyclo[2.2.1]heptan-1-yl)-6,7-dihydropyrazolo[1,5-a]pyrazine-3,5(4H)-dicarboxamide] as the compound, how does the IC50 (CK1ε; read-out: CK1ε IC50 range) read?
Answer: 0.01 to 10 nM

Question: And the IC50 (CK1δ; read-out: CK1δ IC50 range)?
Answer: 0.01 to 10 nM

Question: For `NC(=O)c1c(-c2ccc(F)c(Cl)c2)nn2c1CN(C(=O)N[C@@H]1CC[C@H]1COC(F)F)CC2` [Compound 241, 2-(3-Chloro-4-fluorophenyl)-N^5-((1R,2R)-2-((difluoromethoxy)methyl)cyclobutyl)-6,7-dihydropyrazolo[1,5-a]pyrazine-3,5(4H)-dicarboxamide], which IC50 (CK1ε; read-out: CK1ε IC50 range) is on record?
Answer: 0.01 to 10 nM

Question: What about the IC50 (CK1δ; read-out: CK1δ IC50 range) of the same compound?
Answer: 0.01 to 10 nM
